Test results taken from PMC6836419, “In vitro and in silico anti-dengue activity of compounds obtained from Psidium guajava through bioprospecting” (BMC Complementary and Alternative Medicine, 2019).
≈ marks a conversion by molar mass, not a printed value. Read-outs that look alike come from different tables or passages of the source.

Legend:
DENV-2 = details: cited from earlier work
[1] = MTT cytotoxicity (CC50) in VERO cells; type: cell-based; details: African green monkey (Cercopithecus aethiops)
Procedure: The CC50 was determined via the 3-(4,5-dimethyl-2-thiazolyl)-2,5-diphenyl-2H-tetrazolium bromide) (MTT, Sigma-Aldrich) method. For this, 2.5 × 10^4 VERO cells were seeded in 96-well plates for 24 h. […] After the incubation period, an MTT solution (0.5 mg/mL) was added to the cultures, which were then incubated for an additional 3 h at 37 °C. Finally, dimethyl sulfoxide was added, and the absorbance was read at 450 nm in a Bio-Rad Benchmark® microplate reader. Cultures without extract, fractions, or compounds were processed as positive controls for viability. […] Each experimental condition was tested in triplicate in two independent experiments (n = 6).
To determine the CC50 and EC50, a regression analysis was performed with Probit Software. The SI of each molecule was determined from the relationship between the CC50 and EC50, using the formula SI = CC50/EC50. To compare the number of infectious viral particles released between the cells treated with each fraction or compound (for both the pre- and post-treatment strategies) and the untreated cells, Student’s t-test was used. […] Each experimental condition was tested in triplicate in two independent experiments (n = 6) to guaranty the statistical analysis and the figures show the average of those experiments.

DENV-2/NG [2] = assay: EC50 determination: VERO cells infected with DENV-2/NG in the presence of treatment, multiwell plate focus assay; type: cell-based; details: for EC50: Dengue virus, DENV2, Vero, read-out: Effective concentration 50% (EC50); for Selectivity index (SI): SI = CC50/EC50, VERO cells infected with DENV-2/NG
Procedure: The SI of each ethanolic extract, fraction, or compound was calculated from the relationship between the cytotoxic concentration 50% (CC50) and effective concentration 50% (EC50). The CC50 was determined via the 3-(4,5-dimethyl-2-thiazolyl)-2,5-diphenyl-2H-tetrazolium bromide) (MTT, Sigma-Aldrich) method. For this, 2.5 × 10^4 VERO cells were seeded in 96-well plates for 24 h. Subsequently, serial dilutions of the ethanolic extracts (7.8 μg/mL to 1000 μg/mL), fractions (6.25 to 400 μg/mL), and characterized compounds (6.25 to 400 μg/mL) were performed and incubated with the cells for 48 h. After the incubation period, an MTT solution (0.5 mg/mL) was added to the cultures, which were then incubated for an additional 3 h at 37 °C. Finally, dimethyl sulfoxide was added, and the absorbance was read at 450 nm in a Bio-Rad Benchmark® microplate reader. Cultures without extract, fractions, or compounds were processed as positive controls for viability. The CC50 was calculated as the extract concentration that reduced cell viability by 50% using regression analysis (Probit software). Each experimental condition was tested in triplicate in two independent experiments (n = 6). To calculate the EC50, 2.5 × 10^4 VERO cells were seeded in 96-well plates for 24 h. At 24 h, serial dilutions of each ethanolic extract (7.8 μg/mL to 1000 μg/mL), fraction (6.25 to 400 μg/mL), and characterized compound (6.25 to 400 μg/mL) were mixed with the DENV-2/NG strain (at a multiplicity of infection (MOI = 1) and added to the cell monolayers for 2 h. At 2 h post-inoculation (hpi), the mixtures were removed, and the same serial dilutions of the extracts, fractions, or compounds were added again and incubated for 24 h. Finally, the supernatants were collected and stored at − 70 °C until performing the multiwell plate focus assay.
(§1) A total of 2.5 × 10^4 cells/well were seeded in 96-well plates. The cells were inoculated the following day with serial dilutions (10^− 1 to 10^− 6) of the supernatants from the EC50 experiments for 2 h. Next, the inoculum were removed, and 1.5% carboxymethylcellulose (Sigma-Aldrich) prepared in DMEM (Gibco®) supplemented with 2% FCS (Gibco®) was added, followed by incubation at 37 °C in a 5% CO 2 atmosphere. On the third day, the cells were fixed with a methanol-acetone (1:1) solution for 10 min, washed three times with PBS, and permeabilized with 0.1% Triton X-100 for 30 min, after which nonspecific site blocking was performed with 10% FBS in PBS. Then, DENV anti-envelope monoclonal antibody (mAb) was diluted 1:500 with PBS containing 10% FCS (Gibco®) was added, followed by incubation for 1 h at 37 °C. After washing with PBS, the plates were incubated for 30 min with an anti-mouse IgG secondary antibody conjugated to peroxidase. Finally, the reactions were stained with 3-amino-9-ethylcarbazole (AEC, Sigma-Aldrich), and the number of foci in each well were counted.
To determine the CC50 and EC50, a regression analysis was performed with Probit Software. The SI of each molecule was determined from the relationship between the CC50 and EC50, using the formula SI = CC50/EC50. To compare the number of infectious viral particles released between the cells treated with each fraction or compound (for both the pre- and post-treatment strategies) and the untreated cells, Student’s t-test was used. All statistical analyses were performed using the Prism® 7.01 for Windows™ package (GraphPad Software, San Diego, CA), considering differences statistically significant at p < 0.05 in all cases. Each experimental condition was tested in triplicate in two independent experiments (n = 6) to guaranty the statistical analysis and the figures show the average of those experiments.

DENV-2/NG [3] = assay: Antiviral effect on virus cell entry (pre-treatment strategy); type: cell-based; details: for inhibition at 50 µg/mL: Dengue virus, DENV2, Vero
Procedure: as §1
A total of 2.5 × 10^4 VERO cells were seeded in 24-well plates for 24 h, and the fractions (100 μg/mL) or characterized compounds (50 μg/mL) were then added and incubated with the cells for an additional 24 h (pre-treatment strategy). Subsequently, treatment was withdrawn, and a viral inoculum (DENV-2/NG at an MOI = 1) was added and incubated for 2 h. Subsequently, the virus was removed, and fresh medium was added for an additional 48 h, after which the supernatants were collected and stored at − 70 °C until further processing via the multiwell plate focus assay. For each fraction and compound, two independent experiments were performed each with two replicates (n = 4). Heparin (Sigma-Aldrich) served as the positive control for viral inhibition.
(§2) Fig. 4 Antiviral effects of the compounds derived from the Pg- YP-I-22C fraction on some steps of the DENV replication cycle. The cells were treated with the compounds for 48 h and then infected with DENV (MOI = 1). This infection strategy (pre-treatment) is represented by the dark bars. In addition, independent cell cultures were infected with DENV (MOI = 1) and then treated with the compounds (post-treatment strategy; indicated by clear bars). The error bars correspond to the SEM. The asterisks indicate cases with statistically significant differences (Student’s t-test; p < 0.05) in relation to the control without treatment

DENV-2/NG [4] = assay: Antiviral effect after virus cell entry (post-treatment strategy); type: cell-based; details: for inhibition at 50 µg/mL: Dengue virus, DENV2, Vero, 48 h; for Viral inhibition percentage, post-treatment strategy: VERO cells infected with DENV-2/NG MOI = 1, then compounds 50 μg/mL for 48 h
Procedure: as §1
A total of 2.5 × 10^4 VERO cells were seeded in 24-well plates for 24 h, and a viral inoculum (DENV-2/NG at an MOI = 1) was then added and incubated for 2 h. Subsequently, the inoculum was removed, and the fractions (100 μg/mL) or characterized compounds (50 μg/mL) were added and incubated with the cells for an additional 48 h (post-treatment strategy). Next, the supernatants were collected and stored at − 70 °C until further processing via the multiwell plate focus assay. For each fraction or compound, two independent experiments were performed each with two replicates (n = 4). Suramin served as the positive control for viral inhibition.
as §2

[5] = VERO cells, 48 h incubation, MTT, unit given, not in Table 1, read-out: Cytotoxic concentration 50% (CC50)
[6] = read-out: Viral inhibition percentage, pre-treatment strategy, compounds 50 μg/mL added to VERO cells before infection with DENV-2/NG MOI = 1, plate focus assay
[7] = read-out: Viral inhibition percentage, post-treatment strategy, VERO cells infected with DENV-2/NG MOI = 1, then compounds 50 μg/mL for 48 h, plate focus assay

| Compound | CC50 at 48 h [1, 5] | EC50 (DENV-2/NG [2]) | Selectivity index (SI) (DENV-2/NG [2]) | inhibition at 50 µg/mL (DENV-2/NG [4]; [7]) | further results |
| --- | --- | --- | --- | --- | --- |
| CC[C@H]1CC2CN3CCc4c([nH]c5ccc(OC)cc45)[C@](C(=O)OC)(C2)[C@H]13 (stereo in doubt) [voacangine] |  |  |  |  | Inhibition of infection in vitro by plant-derived compounds (DENV-2): greater than 50% |
| Oc1cc(O)c2c(c1)OC(c1ccc(O)c(O)c1)C(O)C2 (stereo not drawn) [Catechin, catechin] | 833 µg/mL (≈ 2870 µM) | 33.7 µg/mL | 24.8 | 91.8% | inhibition at 50 µg/mL (DENV-2/NG [3]; [6]): 100%; Viral inhibition percentage, pre-treatment strategy (DENV-2/NG [3]; compounds 50 μg/mL added to VERO cells before infection with DENV-2/NG MOI = 1, plate focus assay): greater than 90%; Viral inhibition percentage, post-treatment strategy (DENV-2/NG [4]; plate focus assay): greater than 90% |
| O=C(O)c1cc(O)c(O)c(O)c1 [Gallic Acid, gallic acid] | 543 µg/mL (≈ 3190 µM) | 25.8 µg/mL | 21.1 | 67.3% | inhibition at 50 µg/mL (DENV-2/NG [3]; [6]): 52.6% |
| C[C@@H]1O[C@@H](O[C@H]2[C@H](Oc3cc(O)c4c(c3)O[C@H](c3ccc(O)cc3)CC4=O)O[C@H](CO)[C@@H](O)[C@@H]2O)[C@H](O)[C@H](O)[C@H]1O [Naringin, naringin] | 647 µg/mL (≈ 1110 µM) | 47.9 µg/mL | 13.5 | 64.5% |  |
| O=c1c(O)c(-c2ccc(O)c(O)c2)oc2cc(O)cc(O)c12 [Quercetin, quercetin] |  | 19.2 µg/mL | 34.3 |  | CC50 at 48 h [1]: 660 µg/mL (≈ 2180 µM); inhibition at 50 µg/mL (DENV-2/NG [3]; read-out: Viral inhibition percentage, pre-treatment strategy): 50%; inhibition at 50 µg/mL (DENV-2/NG [4]; read-out: Viral inhibition percentage, post-treatment strategy): 100% |
| Cc1ccc(C(=O)Nc2ccc(S(=O)(=O)O)c3cc(S(=O)(=O)O)cc(S(=O)(=O)O)c23)cc1NC(=O)c1cccc(NC(=O)Nc2cccc(C(=O)Nc3cc(C(=O)Nc4ccc(S(=O)(=O)O)c5cc(S(=O)(=O)O)cc(S(=O)(=O)O)c45)ccc3C)c2)c1 [SURAMIN, suramin, reference compound] |  |  |  |  | Viral inhibition percentage, post-treatment strategy (DENV-2/NG [4]; plate focus assay): better inhibition |
| C=C(C)[C@@H]1CC[C@]2(C)CC[C@]3(C)[C@H](CC[C@@H]4[C@@]5(C)CC[C@H](O)C(C)(C)[C@@H]5CC[C@]43C)[C@@H]12 [lupeol] |  |  |  |  | Inhibition of infection in vitro by plant-derived compounds (DENV-2): greater than 50% |
